The values that follow come from EP0950418A2, “Composition for preventing or treating ischemic disease” (Takeda Chemical Industries, Ltd., priority 1998, dated 1999).

The subject of one experiment is myocardial infarct size. Nature of the experiment: Rat acute myocardial infarction model (extension of myocardial infarct size). Format: in vivo. The note with it: 1 mg/kg, i.v. Here is the method:
(1) Inhibitory effects of Compound A on the extension of myocardial infarct size were determined by "Rat acute myocardial infarction model" described in British Journal of Pharmacology, 114, 949-954 (1995).
(2) Inhibitory effects of Compound B [(S)-(-)-7-(2-chlorophenyl)-5-guanidinoimino-4-methyl-5,6,7,8-tetrahydroquinoline] on the extension of myocardial infarct size were determined by "Rat acute myocardial infarction model" described in British Journal of Pharmacology, 114, 949-954 (1995).

The test system of a further experiment is lethal arrhythmia. The experiment is described as follows: Lethal arrhythmia induced by coronary artery occlusion for 5 minutes with reperfusion. Format: in vivo, Male Wistar rats. On the procedure:
Inhibitory effects of Compounds A and B on lethal arrhythmia were determined by the following method:
Male Wistar rats (10-week-old) were anaesthetized with pentobarbital and the chest was opened to expose the heart. Arrhythmia was induced by coronary artery occlusion for 5 minutes with reperfusion of the coronary blood flow. Ventricular arrhythmia observed during occlusion and for 5 minutes after reperfusion was recorded on Mac Lab through polygraph, and the II Lead electro-cardiogram was recorded. Ventricular tachycardia (VT) was counted when premature ventricular complex (PVC) continued more than 5 times. Each of the drugs was dissolved in saline and administered from the femoral vein 5 minutes before coronary artery occlusion.

Setting [1] is: premature ventricular complex, drug in saline via femoral vein 5 minutes before coronary artery occlusion.
[2] abbreviates: ventricular tachycardia, drug in saline via femoral vein 5 minutes before coronary artery occlusion.

In turn, `Cc1ccnc2c1C(=NNC(=N)N)C[C@@H](c1ccccc1Cl)C2` [Compound B, (S)-(-)-7-(2-chlorophenyl)-5-guanidinoimino-4-methyl-5,6,7,8-tetrahydroquinoline] showed an infarct size/area-at-risk in the experiment with myocardial infarct size (Post-treatment, 1 minute before reperfusion started) of 39±3 %. The infarct size/area-at-risk with myocardial infarct size (Pre-treatment, 5 minutes before coronary occlusion) is reported as 30±5 % t**. In the experiment with lethal arrhythmia (setting [1]), the “PVC D (duration)” value is 20.9 ± 4.3 s and the “PVC N (number of PVCs)” value came to 4.8±2.8 time. The “inhibitory effects on lethal arrhythmia” value in the experiment on lethal arrhythmia (summary in words of the arrhythmia table) was “showed inhibitory effects on lethal arrhythmia”. For the same compound, in the experiment with lethal arrhythmia (setting [2]), the “VT D (duration)” value stood at 7.2 ± 3.6 s and the “VT F (frequency)” value is listed as 3.0±0.7 time.
